≈ marks a conversion by molar mass, not a printed value.
Details: buffer; pH 7.4; 200.0 µM

Q: For `CNS(=O)(=O)c1cccc(C(=O)OCC(=O)NC2CCCC2)c1`, which solubility kinetic is on record?
A: The solubility kinetic was > 51.1 µg/mL.

Q: Which solubility kinetic does the source give for `COc1cc(/C=C/C(=O)OCC(=O)NC(=O)C2COc3ccccc3O2)ccc1OC(F)F` (stereo not given) here?
A: Its solubility kinetic is 15.4 µg/mL (≈ 33.2 µM).

Q: For `Fc1ccc(NC(=S)N2CCc3ccccc32)cc1`, which solubility kinetic is on record?
A: The solubility kinetic was 3.1 µg/mL (≈ 11.4 µM).

Q: Which solubility kinetic does the source give for `O=C(NCCCNC(=O)c1cnccn1)c1ccc(Br)cc1` here?
A: The solubility kinetic was 52.2 µg/mL (≈ 144 µM).

Q: For `Brc1cc(Br)cc(CN2CCSCC2)c1`, which solubility kinetic is on record?
A: Its solubility kinetic is < 0.8 µg/mL.

Q: Which solubility kinetic does the source give for `CC(C)(C)c1ccc(/C=C/C(=O)Nc2cccnc2)cc1` here?
A: The solubility kinetic was 1 µg/mL (≈ 3.57 µM).

Q: With `O=C(CC(=O)c1ccccc1)Nc1cc([N+](=O)[O-])ccc1Cl` as the compound, how does the solubility kinetic read?
A: Its solubility kinetic is 0.6 µg/mL (≈ 1.88 µM).

Q: With `Cc1c(-c2nc(-c3ccc(C(C)(C)C)cc3)no2)n(C)oc1=O` as the compound, how does the solubility kinetic read?
A: Its solubility kinetic is < 0.2 µg/mL.

Q: With `O=C(Nc1cccc(S(=O)(=O)Nc2ccccc2F)c1)c1ccco1` as the compound, how does the solubility kinetic read?
A: Its solubility kinetic is 11.1 µg/mL (≈ 30.8 µM).

Q: For `Cc1ccc(NC(=O)[C@@H]2CCCN2S(=O)(=O)c2ccc(Cl)cc2)cc1`, which solubility kinetic is on record?
A: The solubility kinetic was 14 µg/mL (≈ 37 µM).

Q: For `C#CCn1c(CCNC(=O)c2ccco2)nc2ccccc21`, which solubility kinetic is on record?
A: The solubility kinetic was > 44 µg/mL.

Q: Which solubility kinetic does the source give for `CCC(C)c1ccc(NC(=O)NCc2cccnc2)cc1` (stereo not given) here?
A: Its solubility kinetic is 41 µg/mL (≈ 145 µM).

Q: Which solubility kinetic does the source give for `N#Cc1ccccc1COC(=O)c1ccc2c(c1)OCO2` here?
A: The solubility kinetic was 5.2 µg/mL (≈ 18.5 µM).

Q: For `CCNC(=S)Nc1ccc(Cl)c([N+](=O)[O-])c1`, which solubility kinetic is on record?
A: The solubility kinetic was > 39 µg/mL.

Q: With `O=C(COC(=O)c1cc(Br)ccc1O)NC12CC3CC(CC(C3)C1)C2` as the compound, how does the solubility kinetic read?
A: The solubility kinetic was 3.1 µg/mL (≈ 7.59 µM).

Q: Which solubility kinetic does the source give for `O=C(Cc1ccc(Br)cc1)OCC(=O)N1CCOCC1` here?
A: Its solubility kinetic is > 51.3 µg/mL.

Q: With `CCOc1ccc(C(=O)Nc2ccc(CN3CCOCC3)cc2)cc1Cl` as the compound, how does the solubility kinetic read?
A: The solubility kinetic was 27.5 µg/mL (≈ 73.4 µM).

Q: Which solubility kinetic does the source give for `FC(F)(F)c1ccnc(N2CCN(Cc3cnc(-c4ccccc4)[nH]3)CC2)c1` here?
A: Its solubility kinetic is 26.8 µg/mL (≈ 69.2 µM).

Q: Which solubility kinetic does the source give for `CC1(NC(=O)Nc2cccc(Br)c2)CCS(=O)(=O)C1` (stereo not given) here?
A: The solubility kinetic was > 52.1 µg/mL.

Q: With `O=C(O)c1ccc(-n2c(/C=C/c3ccccc3)nc3ccccc3c2=O)cc1` as the compound, how does the solubility kinetic read?
A: Its solubility kinetic is > 55.3 µg/mL.

Q: Which solubility kinetic does the source give for `O=C(O)CSc1cn(Cc2ccccc2)c2ccccc12` here?
A: Its solubility kinetic is > 44.6 µg/mL.

Q: For `O=C1NC(=S)N/C1=C/c1ccc2ccccc2c1`, which solubility kinetic is on record?
A: Its solubility kinetic is 0.6 µg/mL (≈ 2.36 µM).

Q: With `c1ccc(-c2noc(CC3CCCCC3)n2)nc1` as the compound, how does the solubility kinetic read?
A: The solubility kinetic was 32.2 µg/mL (≈ 132 µM).

Q: Which solubility kinetic does the source give for `O=C(CC1CCCC1)Nc1ccc(Cl)c(S(=O)(=O)N2CCOCC2)c1` here?
A: The solubility kinetic was 54.7 µg/mL (≈ 141 µM).

Q: With `O=C(Nc1cccc(F)c1)NC1CCCc2ccccc21` (stereo not given) as the compound, how does the solubility kinetic read?
A: The solubility kinetic was 2.1 µg/mL (≈ 7.39 µM).

Q: For `COc1ccccc1Oc1nc(-c2cccnc2)nc2ccccc12`, which solubility kinetic is on record?
A: Its solubility kinetic is 2.1 µg/mL (≈ 6.38 µM).

Q: Which solubility kinetic does the source give for `CNc1oc(-c2ccccc2)nc1S(=O)(=O)c1ccc(C)cc1` here?
A: The solubility kinetic was 5.3 µg/mL (≈ 16.1 µM).

Q: With `CCN(CC)c1nc(-c2ccccc2)nc2ccccc12.Cl` as the compound, how does the solubility kinetic read?
A: The solubility kinetic was 0.5 µg/mL.

Q: For `COc1cccc2[nH]c(=O)c(-c3ccccc3)cc12`, which solubility kinetic is on record?
A: The solubility kinetic was 1.4 µg/mL (≈ 5.57 µM).

Q: With `Cn1c(N)c(C(=O)COC(=O)CNC(=O)c2ccc(Cl)cc2Cl)c(=O)n(C)c1=O` as the compound, how does the solubility kinetic read?
A: The solubility kinetic was 10.2 µg/mL (≈ 23 µM).

Q: For `COc1ccc(C(=O)n2cc(C(C)=O)c3ccccc32)cc1`, which solubility kinetic is on record?
A: The solubility kinetic was 1.3 µg/mL (≈ 4.43 µM).

Q: With `O=c1[nH]c(/C=C/c2ccccc2Cl)nc2ccccc12` as the compound, how does the solubility kinetic read?
A: Its solubility kinetic is < 0.3 µg/mL.

Q: With `CCOC(CNc1ncnc2c1cnn2C)OCC` as the compound, how does the solubility kinetic read?
A: The solubility kinetic was > 39.8 µg/mL.

Q: With `O=C(CN1CCCCC1)NC(=O)NC1CCCCC1` as the compound, how does the solubility kinetic read?
A: The solubility kinetic was > 40.1 µg/mL.

Q: With `Cc1ccc(-n2c(=O)c3ccccc3n(CC(=O)C(C)(C)C)c2=O)cc1` as the compound, how does the solubility kinetic read?
A: The solubility kinetic was 7.7 µg/mL (≈ 22 µM).

Q: Which solubility kinetic does the source give for `O=C(Cc1cccc2ccccc12)Nc1cccnc1` here?
A: The solubility kinetic was 39 µg/mL (≈ 149 µM).

Q: Which solubility kinetic does the source give for `CN(C(=O)CSc1ccc2c(c1)OCCO2)c1ccccc1` here?
A: Its solubility kinetic is > 47.3 µg/mL.

Q: With `O=c1cc(OCc2ccccc2)cc[nH]1` as the compound, how does the solubility kinetic read?
A: Its solubility kinetic is > 30.2 µg/mL.

Q: For `O=C(CNC(=O)c1ccc(Cl)cc1)c1ccc(Br)cc1`, which solubility kinetic is on record?
A: Its solubility kinetic is < 0.8 µg/mL.

Q: Which solubility kinetic does the source give for `CC(C)[C@H](NS(=O)(=O)c1ccccc1)C(=O)OCC(=O)NC1CCCCC1` here?
A: Its solubility kinetic is > 59.5 µg/mL.

Q: Which solubility kinetic does the source give for `O=C(O)c1cc(O)ccc1NC(=O)C1CCCO1` (stereo not given) here?
A: The solubility kinetic was 30.1 µg/mL (≈ 120 µM).

Q: Which solubility kinetic does the source give for `Cc1ccc2oc(C(=O)NCC3CCOCC3)c(C)c2c1` here?
A: The solubility kinetic was 42.8 µg/mL (≈ 149 µM).

Q: Which solubility kinetic does the source give for `O=C1CSC(c2ccc(Cl)cc2)N1c1cccnc1` (stereo not given) here?
A: Its solubility kinetic is 42.1 µg/mL (≈ 145 µM).

Q: Which solubility kinetic does the source give for `O=C(Cn1cc([N+](=O)[O-])ccc1=O)NCc1ccc(Cl)cc1Cl` here?
A: Its solubility kinetic is 1.9 µg/mL (≈ 5.33 µM).

Q: For `CN1c2ccc(Cl)cc2C(=O)NC1C1CC=CCC1` (stereo not given), which solubility kinetic is on record?
A: The solubility kinetic was 3.4 µg/mL (≈ 12.3 µM).

Q: With `CC(C)[C@H](NC(N)=O)C(=O)NCCc1ccc(Cl)cc1Cl` as the compound, how does the solubility kinetic read?
A: Its solubility kinetic is 48.2 µg/mL (≈ 145 µM).

Q: For `CCOC(=O)N1CCN(CC(O)c2c[nH]c3ccccc23)CC1` (stereo not given), which solubility kinetic is on record?
A: The solubility kinetic was > 47.6 µg/mL.

Q: Which solubility kinetic does the source give for `Cc1ccc(NC(=O)C2CCCN2C(=O)NC2CCCCC2)cc1` (stereo not given) here?
A: The solubility kinetic was 1.9 µg/mL (≈ 5.77 µM).

Q: Which solubility kinetic does the source give for `CCOC(=O)CC(c1ccc(N)cc1)n1c(C)ccc1C` (stereo not given) here?
A: The solubility kinetic was 20.8 µg/mL (≈ 72.6 µM).

Q: With `Cc1ccc(C(=O)Nc2ccccc2C(=O)NCC2CCCO2)cc1` (stereo not given) as the compound, how does the solubility kinetic read?
A: Its solubility kinetic is > 50.8 µg/mL.

Q: For `CCN(CC)C(=O)c1ccc(-c2nnc(OC)c3ccccc23)cc1`, which solubility kinetic is on record?
A: The solubility kinetic was > 50.3 µg/mL.

Q: For `CC(C)n1c(O)c(C=NCc2cccnc2)c(=O)[nH]c1=S`, which solubility kinetic is on record?
A: Its solubility kinetic is > 45.7 µg/mL.

Q: With `CCOc1ccccc1OCCN1CCCC1` as the compound, how does the solubility kinetic read?
A: The solubility kinetic was 24.1 µg/mL (≈ 102 µM).

Q: For `N#Cc1ccc(C(=O)OCC(=O)N2CCCCCC2)cc1`, which solubility kinetic is on record?
A: Its solubility kinetic is > 42.9 µg/mL.

Q: Which solubility kinetic does the source give for `CC(CCc1ccccc1)NCC(O)c1cccc([N+](=O)[O-])c1.Cl` (stereo not given) here?
A: Its solubility kinetic is > 52.6 µg/mL.

Q: For `Cn1c(=O)n(C)c2cc([N+](=O)[O-])c(N3CCNCC3)cc21`, which solubility kinetic is on record?
A: Its solubility kinetic is > 43.7 µg/mL.

Q: For `COC(=O)c1cccc(N2C(=O)C3C4C=CC(CC4)C3C2=O)c1` (stereo not given), which solubility kinetic is on record?
A: Its solubility kinetic is 9.2 µg/mL (≈ 29.5 µM).

Q: For `O=C(NCc1ccccc1)c1ccc(CSc2ccccc2)o1`, which solubility kinetic is on record?
A: Its solubility kinetic is 11.1 µg/mL (≈ 34.3 µM).

Q: For `Cc1cc(C)cc(NC(=O)C2CCN(c3cnccn3)CC2)c1`, which solubility kinetic is on record?
A: The solubility kinetic was 13.7 µg/mL (≈ 44.1 µM).

Q: With `Cc1cccc(S(=O)(=O)Nc2nc3ccccc3nc2OC(C)C)c1` as the compound, how does the solubility kinetic read?
A: The solubility kinetic was 3.1 µg/mL (≈ 8.67 µM).

Reference: PubChem BioAssay AID1996
